Source: US12065436B2, “Cardiac sarcomere inhibitors” (Cytokinetics, Inc., priority 2018, dated 2024)

Target: bovine cardiac myofibrils (full-length cardiac myosin ATPase in the native sarcomere) (Bos taurus (Bovine), UniProt Q9BE39)
Experiment: Skinned bovine cardiac myofibril ATPase assay (PK/LDH-coupled)
Format: biochemical
Settings: Ca2+ activating to 75% of maximal rate; for CDMF75 IC15: concentration giving 15% inhibition; for IC50: read-out: CDMF75 IC50
Summary of the method: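 Inhibition of steady-state ATPase read at 340 nm through a PK/LDH-coupled NADH system (0.5 mM NADH, 1.5 mM PEP). Detergent-skinned bovine cardiac myofibrils, 1 mg/mL, were tested at pH 6.8 in PIPES/MgCl2 with 50 μM ATP and calcium adjusted to give pCa50 or pCa75 activation.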

Chain of bovine cardiac myofibrils (full-length cardiac myosin ATPase in the native sarcomere) (Q9BE39 whole entry): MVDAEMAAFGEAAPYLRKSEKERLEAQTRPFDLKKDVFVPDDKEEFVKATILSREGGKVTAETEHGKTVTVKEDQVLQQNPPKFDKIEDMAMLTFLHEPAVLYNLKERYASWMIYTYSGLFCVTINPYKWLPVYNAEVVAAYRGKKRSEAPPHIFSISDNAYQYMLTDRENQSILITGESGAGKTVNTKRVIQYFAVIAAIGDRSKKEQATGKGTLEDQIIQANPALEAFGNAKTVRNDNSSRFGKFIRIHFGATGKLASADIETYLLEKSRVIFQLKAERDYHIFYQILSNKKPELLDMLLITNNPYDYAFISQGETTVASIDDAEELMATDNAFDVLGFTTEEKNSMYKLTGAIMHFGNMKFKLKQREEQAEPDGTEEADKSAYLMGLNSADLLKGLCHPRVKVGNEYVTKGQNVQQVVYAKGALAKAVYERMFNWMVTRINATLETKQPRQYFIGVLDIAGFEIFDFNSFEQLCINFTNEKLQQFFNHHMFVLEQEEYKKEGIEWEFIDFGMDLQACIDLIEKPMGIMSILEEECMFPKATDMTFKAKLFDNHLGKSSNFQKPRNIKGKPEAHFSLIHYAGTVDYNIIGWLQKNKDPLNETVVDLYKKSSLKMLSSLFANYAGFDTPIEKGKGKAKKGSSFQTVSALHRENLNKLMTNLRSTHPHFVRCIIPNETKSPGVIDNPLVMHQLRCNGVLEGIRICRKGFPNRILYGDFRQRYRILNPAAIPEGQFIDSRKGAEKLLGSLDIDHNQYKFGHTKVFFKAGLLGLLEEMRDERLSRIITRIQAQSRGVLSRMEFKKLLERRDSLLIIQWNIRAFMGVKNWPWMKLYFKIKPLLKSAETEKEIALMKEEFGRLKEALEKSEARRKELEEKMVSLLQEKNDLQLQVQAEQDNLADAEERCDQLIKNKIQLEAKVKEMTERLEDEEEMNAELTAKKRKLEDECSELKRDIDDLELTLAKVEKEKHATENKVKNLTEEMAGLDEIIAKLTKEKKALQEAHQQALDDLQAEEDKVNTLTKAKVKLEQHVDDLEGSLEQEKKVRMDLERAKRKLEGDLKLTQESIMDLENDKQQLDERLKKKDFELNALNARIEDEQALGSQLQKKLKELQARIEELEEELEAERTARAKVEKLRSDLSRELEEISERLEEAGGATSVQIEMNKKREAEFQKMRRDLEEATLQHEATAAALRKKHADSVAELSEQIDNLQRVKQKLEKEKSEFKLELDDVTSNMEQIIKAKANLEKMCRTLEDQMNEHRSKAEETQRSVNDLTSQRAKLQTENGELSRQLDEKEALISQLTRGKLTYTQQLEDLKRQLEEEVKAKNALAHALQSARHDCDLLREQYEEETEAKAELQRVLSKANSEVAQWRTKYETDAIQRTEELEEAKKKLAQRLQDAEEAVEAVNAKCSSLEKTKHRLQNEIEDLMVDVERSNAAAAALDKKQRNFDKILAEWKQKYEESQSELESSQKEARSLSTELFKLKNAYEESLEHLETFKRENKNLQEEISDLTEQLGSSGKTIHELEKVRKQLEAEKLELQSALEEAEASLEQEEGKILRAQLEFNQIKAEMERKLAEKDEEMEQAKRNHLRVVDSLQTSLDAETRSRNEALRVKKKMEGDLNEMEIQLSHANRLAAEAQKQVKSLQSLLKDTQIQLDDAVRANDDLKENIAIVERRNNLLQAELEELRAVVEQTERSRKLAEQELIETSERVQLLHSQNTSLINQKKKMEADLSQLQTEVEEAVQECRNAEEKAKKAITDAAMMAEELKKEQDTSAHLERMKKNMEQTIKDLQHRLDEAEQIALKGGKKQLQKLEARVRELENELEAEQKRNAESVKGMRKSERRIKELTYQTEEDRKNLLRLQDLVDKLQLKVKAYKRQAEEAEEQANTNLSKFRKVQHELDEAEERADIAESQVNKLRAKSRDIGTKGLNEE
Chain of bovine cardiac myofibrils (full-length cardiac myosin ATPase in the native sarcomere) (P85100 whole entry partner): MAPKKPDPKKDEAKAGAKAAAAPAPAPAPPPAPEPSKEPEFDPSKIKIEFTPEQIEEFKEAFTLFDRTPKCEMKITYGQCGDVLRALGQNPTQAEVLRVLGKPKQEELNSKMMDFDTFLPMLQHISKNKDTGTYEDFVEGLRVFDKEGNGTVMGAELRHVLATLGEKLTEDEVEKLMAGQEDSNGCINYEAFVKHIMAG
Chain of bovine cardiac myofibrils (full-length cardiac myosin ATPase in the native sarcomere) (Q3SZE5 whole entry partner): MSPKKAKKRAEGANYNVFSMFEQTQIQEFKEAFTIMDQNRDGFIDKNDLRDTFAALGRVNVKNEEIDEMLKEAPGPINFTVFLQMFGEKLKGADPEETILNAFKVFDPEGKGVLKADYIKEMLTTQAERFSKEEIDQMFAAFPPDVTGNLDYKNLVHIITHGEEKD

Structure (SMILES)	CDMF75 IC15 [µM]	IC50 [µM]
CCOC(=O)C(C)c1nc(-c2ccc3c(c2)CC[C@H]3NC(=O)c2nnn(C)n2)no1 (stereo partly drawn) [Compound 504, ethyl 2-(3-((R)-1-(2-methyl-2H-tetrazole-5-carboxamido)-2,3-dihydro-1H-inden-5-yl)-1,2,4-oxadiazol-5-yl)propanoate]	4.4	16.6
O=C(N[C@@H]1CCc2cc(-c3noc(C4CCC4)n3)ccc21)c1nn[nH]n1 [Compound 505, (R)-N-(5-(5-cyclobutyl-1,2,4-oxadiazol-3-yl)-2,3-dihydro-1H-inden-1-yl)-2H-tetrazole-5-carboxamide]	6.5	29.2
CCc1nc(-c2ccc3c(c2)CC[C@H]3NC(=O)c2cnn(CC3COC3)c2)no1 [Compound 506, (R)-N-(5-(5-ethyl-1,2,4-oxadiazol-3-yl)-2,3-dihydro-1H-inden-1-yl)-1-(oxetan-3-ylmethyl)-1H-pyrazole-4-carboxamide]	4.5	20
CCc1nc(-c2ccc3c(c2)CC[C@H]3NC(=O)c2cnn(CC3(C)COC3)c2)no1 [Compound 507, (R)-N-(5-(5-ethyl-1,2,4-oxadiazol-3-yl)-2,3-dihydro-1H-inden-1-yl)-1-((3-methyloxetan-3-yl)methyl)-1H-pyrazole-4-carboxamide]	32.6	39.2
CCc1nc(-c2ccc3c(c2)CC[C@H]3NC(=O)c2cnn(CC3(F)COC3)c2)no1 [Compound 508, (R)-N-(5-(5-ethyl-1,2,4-oxadiazol-3-yl)-2,3-dihydro-1H-inden-1-yl)-1-((3-fluorooxetan-3-yl)methyl)-1H-pyrazole-4-carboxamide]	2.6	11.3
COCCn1cc(C(=O)N[C@@H]2CCc3cc(-c4noc(C)n4)ccc32)cn1 [Compound 509, (R)-1-(2-methoxyethyl)-N-(5-(5-methyl-1,2,4-oxadiazol-3-yl)-2,3-dihydro-1H-inden-1-yl)-1H-pyrazole-4-carboxamide]	3.2	12.8
COCCn1cc(C(=O)N[C@@H]2CCc3cc(-c4noc(C5CC5)n4)ccc32)cn1 [Compound 510, (R)-N-(5-(5-cyclopropyl-1,2,4-oxadiazol-3-yl)-2,3-dihydro-1H-inden-1-yl)-1-(2-methoxyethyl)-1H-pyrazole-4-carboxamide]	1.9	7.9
COCCn1cc(C(=O)N[C@@H]2CCc3cc(-c4noc(C(C)C)n4)ccc32)cn1 [Compound 511, (R)-N-(5-(5-isopropyl-1,2,4-oxadiazol-3-yl)-2,3-dihydro-1H-inden-1-yl)-1-(2-methoxyethyl)-1H-pyrazole-4-carboxamide]	3.0	14
COCCn1cc(C(=O)N[C@@H]2CCc3cc(-c4noc(COC)n4)ccc32)cn1 [Compound 512, (R)-1-(2-methoxyethyl)-N-(5-(5-(methoxymethyl)-1,2,4-oxadiazol-3-yl)-2,3-dihydro-1H-inden-1-yl)-1H-pyrazole-4-carboxamide]	4.5	18.2
COCCn1cc(C(=O)N[C@@H]2CCc3cc(-c4noc(C5CCC5)n4)ccc32)cn1 [Compound 513, (R)-N-(5-(5-cyclobutyl-1,2,4-oxadiazol-3-yl)-2,3-dihydro-1H-inden-1-yl)-1-(2-methoxyethyl)-1H-pyrazole-4-carboxamide]	2.2	10.9
[2H]C([2H])([2H])c1nc(-c2ccc3c(c2)CC[C@H]3NC(=O)c2cnn(CCOC)c2)no1 [Compound 514, (R)-1-(2-methoxyethyl)-N-(5-(5-(methyl-d3)-1,2,4-oxadiazol-3-yl)-2,3-dihydro-1H-inden-1-yl)-1H-pyrazole-4-carboxamide]	2.7	11
CCc1nc(-c2ccc3c(c2)CCCC3NC(=O)c2cnn(C)c2)no1 (stereo not shown) [Compound 515, N-(6-(5-ethyl-1,2,4-oxadiazol-3-yl)-1,2,3,4-tetrahydronaphthalen-1-yl)-1-methyl-1H-pyrazole-4-carboxamide]	4.3	19.5
CCc1nc(-c2ccc3c(c2)CCC[C@@H]3NC(=O)c2cnn(C)c2)no1 [Compound 516, (S)-N-(6-(5-ethyl-1,2,4-oxadiazol-3-yl)-1,2,3,4-tetrahydronaphthalen-1-yl)-1-methyl-1H-pyrazole-4-carboxamide]	39.2	39.2
CCc1nc(-c2ccc3c(c2)CCC[C@H]3NC(=O)c2cnn(C)c2)no1 [Compound 517, (R)—N-(6-(5-ethyl-1,2,4-oxadiazol-3-yl)-1,2,3,4-tetrahydronaphthalen-1-yl)-1-methyl-1H-pyrazole-4-carboxamide]	2.2	9.7
CC(CO)c1nc(-c2ccc3c(c2)CC[C@H]3NC(=O)c2nnn(C)n2)no1 (stereo partly drawn) [Compound 518, N-((1R)-5-(5-(1-hydroxypropan-2-yl)-1,2,4-oxadiazol-3-yl)-2,3-dihydro-1H-inden-1-yl)-2-methyl-2H-tetrazole-5-carboxamide]	27.8	39.2
[2H]C([2H])([2H])c1nc(-c2ccc3c(c2)CC[C@H]3NC(=O)c2cnn(CCO)c2)no1 [Compound 519, (R)-1-(2-hydroxyethyl)-N-(5-(5-(methyl-d3)-1,2,4-oxadiazol-3-yl)-2,3-dihydro-1H-inden-1-yl)-1H-pyrazole-4-carboxamide]	1.9	8.7
Cc1nc(-c2ccc3c(c2)CC[C@H]3NC(=O)c2cnn(CCO)c2)no1 [Compound 520, (R)-1-(2-hydroxyethyl)-N-(5-(5-methyl-1,2,4-oxadiazol-3-yl)-2,3-dihydro-1H-inden-1-yl)-1H-pyrazole-4-carboxamide]	1.8	8.1
O=C(N[C@@H]1CCc2cc(-c3noc(C4CC4)n3)ccc21)c1cnn(CCO)c1 [Compound 521, (R)-N-(5-(5-cyclopropyl-1,2,4-oxadiazol-3-yl)-2,3-dihydro-1H-inden-1-yl)-1-(2-hydroxyethyl)-1H-pyrazole-4-carboxamide]	1.2	5
CC(C)c1nc(-c2ccc3c(c2)CC[C@H]3NC(=O)c2cnn(CCO)c2)no1 [Compound 522, (R)-1-(2-hydroxyethyl)-N-(5-(5-isopropyl-1,2,4-oxadiazol-3-yl)-2,3-dihydro-1H-inden-1-yl)-1H-pyrazole-4-carboxamide]	2.0	9.1
COCc1nc(-c2ccc3c(c2)CC[C@H]3NC(=O)c2cnn(CCO)c2)no1 [Compound 523, (R)-1-(2-hydroxyethyl)-N-(5-(5-(methoxymethyl)-1,2,4-oxadiazol-3-yl)-2,3-dihydro-1H-inden-1-yl)-1H-pyrazole-4-carboxamide]	2.9	13.3
O=C(N[C@@H]1CCc2cc(-c3noc(C4CCC4)n3)ccc21)c1cnn(CCO)c1 [Compound 524, (R)-N-(5-(5-cyclobutyl-1,2,4-oxadiazol-3-yl)-2,3-dihydro-1H-inden-1-yl)-1-(2-hydroxyethyl)-1H-pyrazole-4-carboxamide]	1.7	7.3
CCc1nc(-c2ccc3c(c2)CCCC3NC(=O)c2ccnn2C)no1 (stereo not shown) [Compound 525, N-(6-(5-ethyl-1,2,4-oxadiazol-3-yl)-1,2,3,4-tetrahydronaphthalen-1-yl)-1-methyl-1H-pyrazole-5-carboxamide]	0.7	2.5
CCc1nc(-c2ccc3c(c2)CCC[C@H]3NC(=O)c2ccnn2C)no1 [Compound 526, (R)-N-(6-(5-ethyl-1,2,4-oxadiazol-3-yl)-1,2,3,4-tetrahydronaphthalen-1-yl)-1-methyl-1H-pyrazole-5-carboxamide]	0.4	1.3
C=Cn1cc(C(=O)N[C@@H]2CCc3cc(-c4noc(CC)n4)ccc32)cn1 [Compound 527, (R)-N-(5-(5-ethyl-1,2,4-oxadiazol-3-yl)-2,3-dihydro-1H-inden-1-yl)-1-vinyl-1H-pyrazole-4-carboxamide]	0.3	1.1
O=C(N[C@@H]1CCc2cc(-c3noc(C(F)F)n3)ccc21)c1cnn(CCO)c1 [Compound 528, (R)-N-(5-(5-(difluoromethyl)-1,2,4-oxadiazol-3-yl)-2,3-dihydro-1H-inden-1-yl)-1-(2-hydroxyethyl)-1H-pyrazole-4-carboxamide]	1.1	4.9
COCCn1cc(C(=O)N[C@@H]2CCc3cc(-c4noc(C(F)F)n4)ccc32)cn1 [Compound 529, (R)-N-(5-(5-(difluoromethyl)-1,2,4-oxadiazol-3-yl)-2,3-dihydro-1H-inden-1-yl)-1-(2-methoxyethyl)-1H-pyrazole-4-carboxamide]	1.8	6.8
CCc1nc(-c2ccc3c(c2)CC[C@H]3NC(=O)c2cnn(CC(OC)OC)c2)no1 [Compound 530, (R)-1-(2,2-dimethoxyethyl)-N-(5-(5-ethyl-1,2,4-oxadiazol-3-yl)-2,3-dihydro-1H-inden-1-yl)-1H-pyrazole-4-carboxamide]	2.6	8.9
CCc1nc(-c2ccc3c(c2)CC[C@H]3NC(=O)c2cnn(C(C)C(=O)O)c2)no1 (stereo partly drawn) [Compound 531, 2-(4-(((R)-5-(5-ethyl-1,2,4-oxadiazol-3-yl)-2,3-dihydro-1H-inden-1-yl)carbamoyl)-1H-pyrazol-1-yl)propanoic acid]	4.1	25.1
CCc1nc(-c2ccc3c(c2)CC[C@H]3NC(=O)c2cnn(CC(=O)O)c2)no1 [Compound 532, (R)-2-(4-((5-(5-ethyl-1,2,4-oxadiazol-3-yl)-2,3-dihydro-1H-inden-1-yl)carbamoyl)-1H-pyrazol-1-yl)acetic acid]	1.1	5.5
